This note sets out measurements from US9556099B2 (INDENA S.P.A., priority 2013, dated 2017).

Series [1] is described as follows: Plasma and brain levels in mice treated subacutely by intraperitoneal administration (HPLC/MS/MS). The settings on record: 20 mg/kg i.p. twice a day for 4 days, mean±S.E. of 4 animals. The method, then:
In mice treated subacutely (twice a day for 4 days) by intraperitoneal administration at the dose of 20 mg/kg of the products according to the invention, their brain and plasma levels were determined by a combined HPLC/MS/MS analysis technique developed on the basis of a method already described by Keller J. H. et al. (Anal. Chem. 75, 6084, 2003).
Each value is the mean±S.E. of 4 animals. Time 0 corresponds to the 14th hour after the previous treatment

Series [2] has as its system neuropathological damage induced by Aβ fibrils. The experiment in a line: Neuropathological damage induced by Aβ fibrils in vivo (stereotactic injection into the dorsal hippocampus). The settings on record: male rats, product co-injected with 80 μg Aβ fibrils into the dorsal hippocampus; for Density of reactive astrocytes: control 11 ± 4, fibrils only 39 ± 7; for Measurement of astrocyte soma: control 101 ± 18, fibrils only 310 ± 16.
Protocol: To evaluate the potential neuroprotective effect of the products according to the invention, male rats were treated stereotactically in the dorsal hippocampus with 80 μg of Aβ fibrils in the presence or absence of the products.

Where [3] appears, read: time 0 h (14th hour after the previous treatment).

On to `CC(C)=CCC[C@]1(C)[C@@H](CC=C(C)C)C[C@@]2(CC=C(C)C)C(=O)[C@]1(C(=O)C(C)C)C(=O)C(CC=C(C)C)=C2O` [Hyperforin, hyperforin], for which the Brain in series [1] (setting [3]) was 15.2 ± 16.1 ng/g; in series [1] (time 1 h) it was 21.1 ± 7.4 ng/g; in series [1] (time 2 h), 23.2 ± 7.8 ng/g; in series [1] (time 4 h), 32.3 ± 8.1 ng/g; in series [1] (time 6 h), 35.6 ± 8.8 ng/g. The Brain/Plasma is given as 1.89 ± 0.91% in series [1] (setting [3]); 1.24 ± 0.75% in series [1] (time 1 h); 1.32 ± 0.82% in series [1] (time 2 h); 1.91 ± 0.91% in series [1] (time 4 h); 2.12 ± 1.12% in series [1] (time 6 h). For the same compound, the Plasma came to 624.5 ± 81.8 ng/mL in series [1] (setting [3]); 1547.2 ± 226.6 ng/mL in series [1] (time 1 h); 1421.3 ± 235.4 ng/mL in series [1] (time 2 h); 1275.4 ± 212.8 ng/mL in series [1] (time 4 h); 1192.6 ± 196.5 ng/mL in series [1] (time 6 h). The “Density of reactive astrocytes” value in series [2] was 37 ± 6 GFAP^+ cell./4 × 10^3 μm^2. Moreover, in series [2], the “Measurement of astrocyte soma” value worked out at 306 ± 14 arbitrary unit.
For “deisopropyl-dehydro tetrahydro adhyperforin”, in series [2], the “Density of reactive astrocytes” value is 24 ± 4 GFAP^+ cell./4 × 10^3 μm^2 and the “Measurement of astrocyte soma” value amounted to 117 ± 9 arbitrary unit.
